Assay results taken from patent publication US20050176938A1, “Anhydrate/hydrate of an erythromycin derivative and processes for preparing said anhydrate/hydrate” (Chugai Seiyaku Kabushiki Kaisha, priority 2002, published 2005).
Structures can show the parent of a compound that is named as a salt.

Key:
Type in all cases: physicochemical
[1] = Residual solvent level (ethyl acetate) by gas chromatography; conditions: for Residual solvent level: anhydrate before, X-hydrate after conditioning
Description: The residual solvent level described above can be determined by a known method such as gas chromatography. Gas chromatography is described in detail at B98-B114 of the Practical Guide of the 14th revision of Pharmacopoeia of Japan (published by Hirokawa Publishing Co., 2001) or the like. The measurement error by gas chromatography is normally within about ±1%.
The following examples further illustrate the present invention without, however, limiting the invention thereto. In the following examples, NMR spectra were measured by using a nuclear magnetic resonance spectrometer JNM-ECP500SS (made by JEOL) and only characteristic peaks were shown. Powder X-ray diffraction spectra were measured by using a powder X-ray diffractometer RINT-1100 (made by Rigaku). Residual solvent levels were measured by using a gas chromatograph GC-17A (made by Shimadzu) within an error of about ±1%. The staring material Dihydroxy compound described below (compound 1) can be prepared according to the process described in JPA 1997-100241 or modifications thereof.
Crystal form D anhydrate prepared according to Example 2 and Crystal form D X-hydrate prepared by conditioning said anhydrate according to Example 3 (1) or (2) using an air-circulating dryer (made by Nippon Kansoki), a vibro-fluidized bed dryer VUA-10DJ (made by Chuo Kakohki) or a fluidized bed granulator New Marumerizer NQ-160 (made by Fuji Paudal) were assayed for their residual solvent levels (ethyl acetate) by gas chromatography. Before and after conditioning, the crystal form was confirmed by powder X-ray diffraction spectra to have been transferred from Crystal form D anhydrate into Crystal form D X-hydrate.

[2] = Accelerated testing (stability) of Crystal form D anhydrate and X-hydrate at 40° C. and 60° C. for 1 month, degradants by HPLC; conditions: for Percent Degradants: X-hydrate at about 75% RH
Procedure: Three lots of Crystal form D anhydrate prepared according to the procedure described in Example 2 were stored and dried under reduced pressure in a desiccator containing silica gel. After drying under reduced pressure, the desiccator was charged with air conditioned at a relative humidity of 0% RH to perform accelerated testing of Crystal form D anhydrate at 40° C. for 1 month and at 60° C. for 1 month. Similarly, Crystal form D was stored in a desiccator conditioned at a relative humidity of about 75% RH by an aqueous saturated sodium chloride solution to perform accelerated testing of Crystal form D X-hydrate at 40° C. for 1 month and at 60° C. for 1 month. Before and after accelerated testing, the crystal form was confirmed to be Crystal form D anhydrate or Crystal form D X-hydrate by powder X-ray diffraction spectra.
(§1) The resulting samples were tested for purity by HPLC, and the peak area of each sample was measured by automatic analysis to determine the product percentage by the area percentage method according to the equation below. The HPLC column used was YMC ODS AM303 (4.6×250 mm) with a mobile phase consisting of a solution of acetonitrile: water=1:1 containing PICB-8 (Low UV) reagent, and a UV spectrometer (260 nm) and a PDA (200-400 nm) were used as detectors on 25 μL of each sample solution prepared by dissolving about 20 mg of each sample in a solution of acetonitrile:water=1:1 to a volume of exactly 25 mL.
(§2) Degradants percentage (%)=(degradants peak area×100)/(total of peak areas excluding peaks derived from fumaric acid and control solution)

[3] = Accelerated testing with oxygen at 40° C. for 2 weeks and 1 month, degradants by HPLC; conditions: for Percent Degradants: Oxygen replacement, X-hydrate 75% RH
Procedure: as §1, §2
In the same manner as described in (1) above, Crystal form D was stored and dried under reduced pressure in a desiccator containing silica gel. After drying under reduced pressure, the air in the desiccator was replaced with high-purity oxygen conditioned at a relative humidity of 0% RH to perform accelerated testing of Crystal form D anhydrate at 40° C. for 2 weeks and for 1 month. Similarly, Crystal form D was stored in a desiccator conditioned at a relative humidity of about 75% RH by an aqueous saturated sodium chloride solution and the air in the desiccator was replaced with high-purity oxygen conditioned at a relative humidity of 75% RH to perform accelerated testing of Crystal form D X-hydrate at 40° C. for 2 weeks and for 1 month. The resulting samples were analyzed as described in (1) above. Before and after accelerated testing, the crystal form was confirmed to be kept Crystal form D anhydrate or Crystal form D X-hydrate under each conditions by powder X-ray diffraction spectra.

CC[C@H]1OC(=O)[C@H](C)[C@@H](O[C@H]2C[C@@](C)(OC)[C@@H](O)[C@H](C)O2)[C@H](C)[C@@H](O[C@@H]2O[C@H](C)C[C@H](N(C)C(C)C)[C@H]2O)[C@@]2(C)CC(C)=C(O2)[C@H](C)C(=O)[C@]1(C)OC [Crystal form D anhydrate, [2S, 4R, 5R, 8R, 9S, 10S, 11R, 12R]-9-[(2,6-dideoxy-3-C-methyl-3-O-methyl-α-L-ribo-hexopyranosyl)oxy]-5-ethyl-4-methoxy-2,4,8,10,12,14-hexamethyl-11-[[3,4,6-trideoxy-3-(isopropylmethylamino)-β-D-xylo-hexopyranosyl]oxy]-6,15-dioxabicyclo[10.2.1]pentadec-14(1)-ene-3,7-dione (E)-2-butenedioic acid salt (2:1)]
Residual solvent level ([1]; Lot A, Air-circulating dryer, 20-21° C., 58-63% RH (air) 2 hrs, listed as Anhydrate): 697 ppm | Residual solvent level ([1]; Lot B, Vibro-fluidized bed dryer, 22-28° C., 75 ± 15% RH (nitrogen gas) 4 hrs, listed as Anhydrate): 616 ppm | Residual solvent level ([1]; Lot C, Fluidized bed granulator, 24-29° C., 75 ± 10% RH (air) 4 hrs, listed as Anhydrate): 750 ppm | Residual solvent level ([1]; Lot D, Vibro-fluidized bed dryer, 19-26° C., 70-71% RH (nitrogen gas) 4 hrs, listed as Anhydrate): 875 ppm | Residual solvent level ([1]; Lot E, Air-circulating dryer, 19-28° C., 41-71% RH (air) 72 hrs, listed as Anhydrate): 663 ppm | Percent Degradants ([2]; 40° C., Lot 1, anhydrate at 0% RH, listed as Anhydrate): 1.01% | Percent Degradants ([2]; 40° C., Lot 2, anhydrate at 0% RH, listed as Anhydrate): 1.38% | Percent Degradants ([2]; 40° C., Lot 3, anhydrate at 0% RH, listed as Anhydrate): 1.41% | Percent Degradants ([2]; 60° C., Lot 1, anhydrate at 0% RH, listed as Anhydrate): 2.66% | Percent Degradants ([2]; 60° C., Lot 2, anhydrate at 0% RH, listed as Anhydrate): 2.52% | Percent Degradants ([2]; 60° C., Lot 3, anhydrate at 0% RH, listed as Anhydrate): 3.05% | Percent Degradants ([3]; 1 month, Lot 1, anhydrate 0% RH, listed as Anhydrate): 3.12% | Percent Degradants ([3]; 1 month, Lot 2, anhydrate 0% RH, listed as Anhydrate): 3.39% | Percent Degradants ([3]; 1 month, Lot 3, anhydrate 0% RH, listed as Anhydrate): 3.96% | Percent Degradants ([3]; 2 weeks, Lot 1, anhydrate 0% RH, listed as Anhydrate): 1.01% | Percent Degradants ([3]; 2 weeks, Lot 2, anhydrate 0% RH, listed as Anhydrate): 1.00% | Percent Degradants ([3]; 2 weeks, Lot 3, anhydrate 0% RH, listed as Anhydrate): 1.32%

CC[C@H]1OC(=O)[C@H](C)[C@@H](O[C@H]2C[C@@](C)(OC)[C@@H](O)[C@H](C)O2)[C@H](C)[C@@H](O[C@@H]2O[C@H](C)C[C@H](N(C)C(C)C)[C@H]2O)[C@@]2(C)CC(C)=C(O2)[C@H](C)C(=O)[C@]1(C)OC [Crystal form D X-hydrate, [2S, 4R, 5R, 8R, 9S, 10S, 11R, 12R]-9-[(2,6-dideoxy-3-C-methyl-3-O-methyl-α-L-ribo-hexopyranosyl)oxy]-5-ethyl-4-methoxy-2,4,8,10,12,14-hexamethyl-11-[[3,4,6-trideoxy-3-(isopropylmethylamino)-β-D-xylo-hexopyranosyl]oxy]-6,15-dioxabicyclo[10.2.1]pentadec-14 (1)-ene-3,7-dione (E)-2-butenedioic acid salt (2:1)]
Residual solvent level ([1]; Lot A, Air-circulating dryer, 20-21° C., 58-63% RH (air) 2 hrs, listed as X-hydrate): 636 ppm | Residual solvent level ([1]; Lot B, Vibro-fluidized bed dryer, 22-28° C., 75 ± 15% RH (nitrogen gas) 4 hrs, listed as X-hydrate): 446 ppm | Residual solvent level ([1]; Lot C, Fluidized bed granulator, 24-29° C., 75 ± 10% RH (air) 4 hrs, listed as X-hydrate): 424 ppm | Residual solvent level ([1]; Lot D, Vibro-fluidized bed dryer, 19-26° C., 70-71% RH (nitrogen gas) 4 hrs, listed as X-hydrate): 424 ppm | Residual solvent level ([1]; Lot E, Air-circulating dryer, 19-28° C., 41-71% RH (air) 72 hrs, listed as X-hydrate): 251 ppm | residual solvent level compared between the crystal forms ([1]; all the lots): lower | stability compared between the crystal forms ([2]; 40° C. and 60° C., all the lots): more stable than Crystal form D anhydrate | Percent Degradants ([2]; 40° C., Lot 1, anhydrate at 0% RH, listed as X-hydrate): 0.17% | Percent Degradants ([2]; 40° C., Lot 2, anhydrate at 0% RH, listed as X-hydrate): 0.42% | Percent Degradants ([2]; 40° C., Lot 3, anhydrate at 0% RH, listed as X-hydrate): 0.22% | Percent Degradants ([2]; 60° C., Lot 1, anhydrate at 0% RH, listed as X-hydrate): 0.90% | Percent Degradants ([2]; 60° C., Lot 2, anhydrate at 0% RH, listed as X-hydrate): 0.63% | Percent Degradants ([2]; 60° C., Lot 3, anhydrate at 0% RH, listed as X-hydrate): 1.53% | Percent Degradants ([3]; 1 month, Lot 1, anhydrate 0% RH, listed as X-hydrate): 0.66% | Percent Degradants ([3]; 1 month, Lot 2, anhydrate 0% RH, listed as X-hydrate): 0.72% | Percent Degradants ([3]; 1 month, Lot 3, anhydrate 0% RH, listed as X-hydrate): 0.93% | Percent Degradants ([3]; 2 weeks, Lot 1, anhydrate 0% RH, listed as X-hydrate): 0.17% | Percent Degradants ([3]; 2 weeks, Lot 2, anhydrate 0% RH, listed as X-hydrate): 0.05% | Percent Degradants ([3]; 2 weeks, Lot 3, anhydrate 0% RH, listed as X-hydrate): 0.18% | stability compared between the crystal forms ([3]; oxygen replacement, 2 weeks and 1 month): more stable than Crystal form D anhydrate
